Experimental findings from patent publication US20090304692A1, “TRIAZINE COMPOUNDS AS PI3 KINASE AND MTOR INHIBITORS” (Wyeth, priority 2008, published 2009) are described below.

pIC50: −log10 of the molar value. Where two headings read alike, the source gives them in different places.

Test [1] deals with human prostate PC3-mm2 tumor cell line. Put plainly: In vitro cell culture growth assay (MTS), PC3-mm2. The note with it: Homo sapiens, PC3MM2, 72 h, MTS cell growth assay, three days after drug treatment, PC3-mm2 cells; read-out: IC50 PC3-mm2. Type of test: cell-based.
A further test has as its target PI3K-γ (Homo sapiens, UniProt P48736). Put plainly: PI3K-gamma fluorescence polarization assay.
Test [2] concerns human breast MDA-MB-361 tumor cell line. Put plainly: In vitro cell culture growth assay (MTS), MDA-MB-361. Type of test: cell-based. The note with it: Homo sapiens, MTS cell growth assay, three days after drug treatment, MDA-MB-361 cells, read-out: IC50 MDA-MB-361.
The target of another test is PI3K-α (Homo sapiens, UniProt P42336). Put plainly: PI3K-alpha fluorescence polarization assay.
The next test addresses Human mTOR (FLAG-TOR) (Homo sapiens, UniProt P42345). Put plainly: mTOR kinase assay (DELFIA format, purified enzyme). Type of test: biochemical. As to conditions: read-out: IC50 mTOR.

Sequence of PI3K-γ (P48736 whole entry, species assumed): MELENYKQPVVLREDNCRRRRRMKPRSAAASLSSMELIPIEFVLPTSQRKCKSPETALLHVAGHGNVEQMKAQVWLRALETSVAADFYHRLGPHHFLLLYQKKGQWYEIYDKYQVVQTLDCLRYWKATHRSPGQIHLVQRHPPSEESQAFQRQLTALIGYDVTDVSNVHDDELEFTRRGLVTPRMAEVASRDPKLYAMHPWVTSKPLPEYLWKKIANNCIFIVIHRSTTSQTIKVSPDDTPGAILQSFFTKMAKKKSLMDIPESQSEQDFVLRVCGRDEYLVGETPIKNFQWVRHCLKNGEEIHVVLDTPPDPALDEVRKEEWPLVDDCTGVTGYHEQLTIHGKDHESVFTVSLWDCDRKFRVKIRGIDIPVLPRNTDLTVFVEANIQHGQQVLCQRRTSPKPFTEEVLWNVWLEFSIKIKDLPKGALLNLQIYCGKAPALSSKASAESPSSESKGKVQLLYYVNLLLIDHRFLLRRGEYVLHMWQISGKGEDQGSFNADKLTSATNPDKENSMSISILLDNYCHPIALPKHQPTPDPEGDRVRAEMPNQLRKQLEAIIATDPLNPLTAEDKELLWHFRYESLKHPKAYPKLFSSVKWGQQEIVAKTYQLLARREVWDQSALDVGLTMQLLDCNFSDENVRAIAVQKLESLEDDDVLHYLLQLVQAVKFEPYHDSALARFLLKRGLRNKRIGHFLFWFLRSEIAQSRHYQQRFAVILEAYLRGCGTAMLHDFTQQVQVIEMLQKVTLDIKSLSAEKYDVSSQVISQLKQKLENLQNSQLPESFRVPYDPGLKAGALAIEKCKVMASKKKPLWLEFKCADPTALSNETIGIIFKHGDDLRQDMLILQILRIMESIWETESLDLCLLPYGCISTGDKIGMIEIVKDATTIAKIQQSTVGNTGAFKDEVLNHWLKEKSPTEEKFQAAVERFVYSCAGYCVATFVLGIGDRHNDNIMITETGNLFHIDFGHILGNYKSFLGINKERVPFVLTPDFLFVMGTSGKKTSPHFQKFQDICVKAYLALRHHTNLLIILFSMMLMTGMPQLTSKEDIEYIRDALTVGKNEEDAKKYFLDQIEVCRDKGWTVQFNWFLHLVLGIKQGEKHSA
Sequence of Human mTOR (FLAG-TOR) (P42345 1360-2549 limits assumed): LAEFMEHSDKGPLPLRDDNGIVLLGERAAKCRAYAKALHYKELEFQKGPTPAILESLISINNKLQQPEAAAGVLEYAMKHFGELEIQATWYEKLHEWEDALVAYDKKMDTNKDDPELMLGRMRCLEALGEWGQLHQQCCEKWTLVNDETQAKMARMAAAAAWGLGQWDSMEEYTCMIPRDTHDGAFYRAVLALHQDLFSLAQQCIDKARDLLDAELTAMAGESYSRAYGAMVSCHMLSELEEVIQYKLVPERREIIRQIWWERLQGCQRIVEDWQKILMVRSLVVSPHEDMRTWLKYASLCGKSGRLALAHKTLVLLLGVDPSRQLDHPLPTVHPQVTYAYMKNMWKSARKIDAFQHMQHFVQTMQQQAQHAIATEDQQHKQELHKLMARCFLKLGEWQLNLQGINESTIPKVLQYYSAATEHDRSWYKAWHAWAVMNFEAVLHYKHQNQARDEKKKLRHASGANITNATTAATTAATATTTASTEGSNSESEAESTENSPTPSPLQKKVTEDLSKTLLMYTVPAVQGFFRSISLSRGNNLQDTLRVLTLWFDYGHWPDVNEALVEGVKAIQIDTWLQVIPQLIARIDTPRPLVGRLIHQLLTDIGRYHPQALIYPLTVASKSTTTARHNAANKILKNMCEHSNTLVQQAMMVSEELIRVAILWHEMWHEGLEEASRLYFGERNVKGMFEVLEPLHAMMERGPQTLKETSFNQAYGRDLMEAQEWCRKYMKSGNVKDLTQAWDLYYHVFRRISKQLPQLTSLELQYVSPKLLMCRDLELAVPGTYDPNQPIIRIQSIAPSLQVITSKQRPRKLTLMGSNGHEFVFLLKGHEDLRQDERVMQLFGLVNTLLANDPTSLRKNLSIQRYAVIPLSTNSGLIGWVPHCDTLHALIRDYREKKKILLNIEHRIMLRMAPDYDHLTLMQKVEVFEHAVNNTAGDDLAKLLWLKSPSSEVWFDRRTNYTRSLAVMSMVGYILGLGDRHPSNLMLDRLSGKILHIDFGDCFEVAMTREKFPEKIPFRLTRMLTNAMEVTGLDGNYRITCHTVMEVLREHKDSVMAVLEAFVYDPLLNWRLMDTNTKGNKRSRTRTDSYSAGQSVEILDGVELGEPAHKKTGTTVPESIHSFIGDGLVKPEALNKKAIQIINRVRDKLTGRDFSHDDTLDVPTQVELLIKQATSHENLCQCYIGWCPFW
Sequence of PI3K-α (P42336 whole entry, species assumed): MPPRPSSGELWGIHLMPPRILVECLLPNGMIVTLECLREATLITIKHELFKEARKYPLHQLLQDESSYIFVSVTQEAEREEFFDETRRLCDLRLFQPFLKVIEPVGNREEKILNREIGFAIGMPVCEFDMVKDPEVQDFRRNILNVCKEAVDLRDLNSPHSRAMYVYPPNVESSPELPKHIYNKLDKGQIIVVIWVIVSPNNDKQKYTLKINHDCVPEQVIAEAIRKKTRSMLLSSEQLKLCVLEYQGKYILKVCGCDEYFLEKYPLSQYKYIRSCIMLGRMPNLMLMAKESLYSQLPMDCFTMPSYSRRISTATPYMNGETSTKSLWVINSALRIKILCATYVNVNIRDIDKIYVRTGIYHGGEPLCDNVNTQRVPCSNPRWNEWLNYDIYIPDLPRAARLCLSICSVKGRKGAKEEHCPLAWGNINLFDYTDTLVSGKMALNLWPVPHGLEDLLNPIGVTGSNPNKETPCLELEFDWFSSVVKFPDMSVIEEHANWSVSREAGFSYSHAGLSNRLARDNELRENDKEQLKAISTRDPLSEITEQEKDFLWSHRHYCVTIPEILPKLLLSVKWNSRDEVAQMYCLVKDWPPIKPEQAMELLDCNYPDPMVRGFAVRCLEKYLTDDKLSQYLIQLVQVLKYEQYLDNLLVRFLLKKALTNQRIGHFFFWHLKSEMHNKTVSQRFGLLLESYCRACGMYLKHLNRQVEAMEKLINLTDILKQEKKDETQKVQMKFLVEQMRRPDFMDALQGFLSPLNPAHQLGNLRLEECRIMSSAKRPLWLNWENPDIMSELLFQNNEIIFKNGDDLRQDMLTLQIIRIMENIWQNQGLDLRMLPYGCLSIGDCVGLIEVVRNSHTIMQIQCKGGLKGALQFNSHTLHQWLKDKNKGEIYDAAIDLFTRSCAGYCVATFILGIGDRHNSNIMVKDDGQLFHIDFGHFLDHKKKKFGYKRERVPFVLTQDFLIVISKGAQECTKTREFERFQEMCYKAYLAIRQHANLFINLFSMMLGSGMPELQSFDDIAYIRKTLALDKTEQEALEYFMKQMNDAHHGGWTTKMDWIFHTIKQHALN
Sequence of PI3K-α (P27986 whole entry partner, species assumed): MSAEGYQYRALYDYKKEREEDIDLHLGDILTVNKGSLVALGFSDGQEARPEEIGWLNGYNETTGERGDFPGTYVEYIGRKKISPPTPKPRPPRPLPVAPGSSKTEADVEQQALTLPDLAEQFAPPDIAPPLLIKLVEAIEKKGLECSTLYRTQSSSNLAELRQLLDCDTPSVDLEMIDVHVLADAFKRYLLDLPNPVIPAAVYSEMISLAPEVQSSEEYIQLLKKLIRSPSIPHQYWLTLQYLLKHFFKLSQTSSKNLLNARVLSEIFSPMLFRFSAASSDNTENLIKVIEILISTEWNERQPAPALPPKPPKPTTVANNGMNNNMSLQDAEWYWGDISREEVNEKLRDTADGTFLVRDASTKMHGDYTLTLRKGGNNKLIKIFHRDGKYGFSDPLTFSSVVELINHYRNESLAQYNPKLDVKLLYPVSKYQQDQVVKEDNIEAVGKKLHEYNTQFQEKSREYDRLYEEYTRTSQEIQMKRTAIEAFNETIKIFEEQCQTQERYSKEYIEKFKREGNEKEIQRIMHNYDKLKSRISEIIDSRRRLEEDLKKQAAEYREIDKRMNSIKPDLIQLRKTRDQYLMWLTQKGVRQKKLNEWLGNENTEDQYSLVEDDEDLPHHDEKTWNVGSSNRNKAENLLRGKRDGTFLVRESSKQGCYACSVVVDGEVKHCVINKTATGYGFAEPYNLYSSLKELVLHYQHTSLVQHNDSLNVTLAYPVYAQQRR

As for `CN1CCN(C(=O)c2ccc(NC(=O)Nc3ccc(-c4nc(N5CCCC5)nc(N5CCOCC5)n4)cc3)cc2)CC1` [Example 607, 1-{4-[(4-methylpiperazin-1-yl)carbonyl]phenyl}-3-[4-(4-morpholin-4-yl-6-pyrrolidin-1-yl-1,3,5-triazin-2-yl)phenyl]urea], the pIC50 was 6.67 in test [1]; 7.03 on PI3K-γ (read-out: IC50 PI3Kγ); 7.62 in test [2] (MDA-MB-361, 72 h); 7.92 at PI3K-α (read-out: IC50 PI3Kα); 7.72 at Human mTOR (FLAG-TOR).
As for `CN(C)CCNC(=O)c1ccc(NC(=O)Nc2ccc(-c3nc(N4CCCC4)nc(N4CCOCC4)n3)cc2)cc1` [Example 608, N-[2-(dimethylamino)ethyl]-4-({[4-(4-morpholin-4-yl-6-pyrrolidin-1-yl-1,3,5-triazin-2-yl)phenyl]carbamoyl}amino)benzamide], the negative-log IC50 (pIC50) was 6.53 in test [1]; 6.97 on PI3K-γ (read-out: IC50 PI3Kγ); 7.28 in test [2] (72 h); 8.05 on PI3K-α (read-out: IC50 PI3Kα); 8.30 at Human mTOR (FLAG-TOR).
On to `C[C@H]1COCCN1c1nc(-c2ccc(NC(=O)Nc3ccncc3)cc2)nc(N2CCOC[C@@H]2C)n1` [Example 609, 1-(4-{4,6-bis[(3S)-3-methylmorpholin-4-yl]-1,3,5-triazin-2-yl}phenyl)-3-pyridin-4-ylurea], for which the pIC50 was 7.59 in test [1]; 7.03 at PI3K-γ; 7.62 in test [2] (MDA-MB-361, 72 h); 7.94 against PI3K-α; 8.52 on Human mTOR (FLAG-TOR).
For `CN(C)CCCNC(=O)c1ccc(NC(=O)Nc2ccc(-c3nc(N4CCCCC4)nc(N4CCOCC4)n3)cc2)cc1` [Example 610, N-[3-(dimethylamino)propyl]-4-({[4-(4-morpholin-4-yl-6-piperidin-1-yl-1,3,5-triazin-2-yl)phenyl]carbamoyl}amino)benzamide], the negative-log IC50 (pIC50) was 6.53 in test [1]; 7.30 on PI3K-γ (read-out: IC50 PI3Kγ); 7.55 in test [2] (72 h); 8.46 on PI3K-α (read-out: IC50 PI3Kα); 8.30 on Human mTOR (FLAG-TOR).
For `COCCNC(=O)c1ccc(NC(=O)Nc2ccc(-c3nc(N4CCCCC4)nc(N4CCOCC4)n3)cc2)cc1` [Example 611, N-(2-methoxyethyl)-4-({[4-(4-morpholin-4-yl-6-piperidin-1-yl-1,3,5-triazin-2-yl)phenyl]carbamoyl}amino)benzamide], in that order: 6.24, 6.82, 6.71, 7.73 and 7.89.
With `O=C(Nc1ccc(C(=O)N2CCCC2)cc1)Nc1ccc(-c2nc(N3CCCC3)nc(N3CCOCC3)n2)cc1` [Example 612, 1-[4-(4-morpholin-4-yl-6-pyrrolidin-1-yl-1,3,5-triazin-2-yl)phenyl]-3-[4-(pyrrolidin-1-ylcarbonyl)phenyl]urea], the pIC50 was 6.64 in test [1]; 7.17 at PI3K-γ (read-out: IC50 PI3Kγ); 7.42 in test [2] (MDA-MB-361, 72 h); 8.26 at PI3K-α (read-out: IC50 PI3Kα); 7.21 at Human mTOR (FLAG-TOR).
As for `CCN1CCN(C(=O)c2ccc(NC(=O)Nc3ccc(-c4nc(N5CCOC[C@@H]5C)nc(N5CCOC[C@@H]5C)n4)cc3)cc2)CC1` [Example 613, 1-(4-{4,6-bis[(3S)-3-methylmorpholin-4-yl]-1,3,5-triazin-2-yl}phenyl)-3-{4-[(4-ethylpiperazin-1-yl)carbonyl]phenyl}urea], the pIC50 in test [1] was 7.68; on PI3K-γ (read-out: IC50 PI3Kγ) it was 7.27; in test [2] (72 h) it was 8.22; on PI3K-α (read-out: IC50 PI3Kα), 8.42; on Human mTOR (FLAG-TOR) it was 9.00.
For `CC(C)N1CCN(C(=O)c2ccc(NC(=O)Nc3ccc(-c4nc(N5CCOC[C@@H]5C)nc(N5CCOC[C@@H]5C)n4)cc3)cc2)CC1` [Example 614, 1-(4-{4,6-bis[(3S)-3-methylmorpholin-4-yl]-1,3,5-triazin-2-yl}phenyl)-3-(4-{[4-(1-methylethyl)piperazin-1-yl]carbonyl}phenyl)urea], in that order: 7.82, 7.49, 8.40, 8.57 and 9.00.
